Test results as given in PubChem BioAssay (NCI).
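GI50 is the concentration that inhibits growth by half. TGI is the concentration that stops growth completely.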

Experiments:
Test in all cases: growth of human tumour cells (NCI), 384-well format
NCI-H460 NSCLC = test system: NCI-H460 NSCLC
NCI-H23 lung = test system: NCI-H23 lung
KM12 colon = test system: KM12 colon
DU-145 prostate = test system: DU-145 prostate
OVCAR-3 ovarian = test system: OVCAR-3 ovarian
HL-60(TB) leukemia = test system: HL-60(TB) leukemia
TK-10 renal = test system: TK-10 renal
NCI-H226 lung = test system: NCI-H226 lung
PC-3 prostate = test system: PC-3 prostate
UACC-62 melanoma = test system: UACC-62 melanoma
SF-295 CNS = test system: SF-295 CNS
IGROV1 ovarian = test system: IGROV1 ovarian
A549 NSCLC = test system: A549 NSCLC
786-0 renal = test system: 786-0 renal
HCC-2998 colon = test system: HCC-2998 colon
HCT-15 colon = test system: HCT-15 colon
SN12C renal = test system: SN12C renal
M14 melanoma = test system: M14 melanoma
BT-549 breast = test system: BT-549 breast
HT29 colon = test system: HT29 colon
SW-620 colon = test system: SW-620 colon
ACHN renal = test system: ACHN renal
SK-MEL-2 melanoma = test system: SK-MEL-2 melanoma
RXF 393 renal = test system: RXF 393 renal
T-47D breast = test system: T-47D breast
A498 renal = test system: A498 renal
SK-MEL-28 melanoma = test system: SK-MEL-28 melanoma
UACC-257 melanoma = test system: UACC-257 melanoma

For `CC1(C)CC(O)CC(C)(C)N1O`, the GI50 (NCI-H460 NSCLC) was greater than 100 µM, the TGI (NCI-H460 NSCLC) was greater than 100 µM and the GI50 (NCI-H23 lung) was greater than 100 µM. For the same molecule, the TGI (NCI-H23 lung) was greater than 100 µM, the GI50 (KM12 colon) was greater than 100 µM and the TGI (KM12 colon) was greater than 100 µM. It also gave a GI50 (DU-145 prostate) greater than 100 µM, a TGI (DU-145 prostate) greater than 100 µM and a GI50 (OVCAR-3 ovarian) of 71.7 µM. The TGI (OVCAR-3 ovarian) was greater than 100 µM, the GI50 (HL-60(TB) leukemia) was greater than 100 µM and the TGI (HL-60(TB) leukemia) was greater than 100 µM. For the same molecule, the GI50 (TK-10 renal) was greater than 100 µM, the TGI (TK-10 renal) was greater than 100 µM and the GI50 (NCI-H226 lung) was greater than 100 µM. It also gave a TGI (NCI-H226 lung) greater than 100 µM, a GI50 (PC-3 prostate) greater than 100 µM and a TGI (PC-3 prostate) greater than 100 µM. For the same molecule, the GI50 (UACC-62 melanoma) was greater than 100 µM, the TGI (UACC-62 melanoma) was greater than 100 µM and the GI50 (SF-295 CNS) was greater than 100 µM. The TGI (SF-295 CNS) was greater than 100 µM, the GI50 (IGROV1 ovarian) was greater than 100 µM and the TGI (IGROV1 ovarian) was greater than 100 µM. It also gave a GI50 (A549 NSCLC) greater than 100 µM, a TGI (A549 NSCLC) greater than 100 µM and a GI50 (786-0 renal) greater than 100 µM. The TGI (786-0 renal) was greater than 100 µM, the GI50 (HCC-2998 colon) was greater than 100 µM and the TGI (HCC-2998 colon) was greater than 100 µM. The GI50 (HCT-15 colon) was greater than 100 µM, the TGI (HCT-15 colon) was greater than 100 µM and the GI50 (SN12C renal) was greater than 100 µM. For the same molecule, the TGI (SN12C renal) was greater than 100 µM, the GI50 (M14 melanoma) was greater than 100 µM and the TGI (M14 melanoma) was greater than 100 µM. It also gave a GI50 (BT-549 breast) greater than 100 µM, a TGI (BT-549 breast) greater than 100 µM and a GI50 (HT29 colon) greater than 100 µM. For the same molecule, the TGI (HT29 colon) was greater than 100 µM, the GI50 (SW-620 colon) was greater than 100 µM and the TGI (SW-620 colon) was greater than 100 µM. It also gave a GI50 (ACHN renal) greater than 100 µM, a TGI (ACHN renal) greater than 100 µM and a GI50 (SK-MEL-2 melanoma) greater than 100 µM. For the same molecule, the TGI (SK-MEL-2 melanoma) was greater than 100 µM, the GI50 (RXF 393 renal) was greater than 100 µM and the TGI (RXF 393 renal) was greater than 100 µM. It also gave a GI50 (T-47D breast) greater than 100 µM, a TGI (T-47D breast) greater than 100 µM and a GI50 (A498 renal) greater than 100 µM. It also gave a TGI (A498 renal) greater than 100 µM, a GI50 (SK-MEL-28 melanoma) greater than 100 µM and a TGI (SK-MEL-28 melanoma) greater than 100 µM. The GI50 (UACC-257 melanoma) was greater than 100 µM and the TGI (UACC-257 melanoma) was greater than 100 µM.
